Experimental data reported in the supplement of paper PMC11061612.

tested on: U-698-M; details: B-Cell Non-Hodgkin's Lymphoma, max 0.001 µM
In short: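 In 1536-well plates, cancer cell lines in 7.5 μl DMEM/F12 or RPMI with 10% FBS spent 24 hours at 37°C and 5% CO2 and were then dosed for 72 hours with final DMSO typically 0.2%. Viability was read by CellTiter-Glo 2.0 luminescence and scaled between blank-well and DMSO-well means. The single-agent IC50 was fitted from dose responses using a logistic curve in a non-linear mixed effects model, and that logistic curve had two parameters.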

Structure (SMILES) | IC50, cell viability 72 h [nM]
COc1cc2c(cc1OCCCCCOc1cc3c(cc1OC)C(=O)N1C=C(C)C[C@H]1C=N3)N=C[C@@H]1CC(C)=CN1C2=O [SG3199] | > 1

same assay, conditions: B-Cell Non-Hodgkin's Lymphoma, max 0.3 µM

Structure (SMILES) | IC50, cell viability 72 h [nM]
Nc1ccn([C@@H]2O[C@H](CO)[C@@H](O)C2(F)F)c(=O)n1 [Gemcitabine] | 130
CCc1c2c(nc3ccc(O)cc13)-c1cc3c(c(=O)n1C2)COC(=O)[C@]3(O)CC [SN-38] | 22

same assay, conditions: B-Cell Non-Hodgkin's Lymphoma, max 1 µM

Structure (SMILES) | IC50, cell viability 72 h [nM]
COc1cccc(OCCCN)c1-c1cc(Nc2cnc(C#N)cn2)n[nH]1 [Prexasertib] | 11.1
C[C@@H](c1ccc2nccn2c1)n1nnc2ncc(-c3cnn(C)c3)nc21 [Savolitinib] | > 1000
CC(=O)Nc1cccc(-n2c(=O)n(C3CC3)c(=O)c3c(Nc4ccc(I)cc4F)n(C)c(=O)c(C)c32)c1 [Trametinib] | > 1000
CC1(C)CCC(CN2CCN(c3ccc(C(=O)NS(=O)(=O)c4ccc(NCC5CCOCC5)c([N+](=O)[O-])c4)c(Oc4cnc5[nH]ccc5c4)c3)CC2)=C(c2ccc(Cl)cc2)C1 [Venetoclax] | > 1000

same assay, conditions: B-Cell Non-Hodgkin's Lymphoma, max 3 µM

Structure (SMILES) | IC50, cell viability 72 h [nM]
CC(=O)O[C@H]1C(=O)[C@@]2(C)[C@H]([C@H](OC(=O)c3ccccc3)[C@]3(O)C[C@H](OC(=O)[C@H](O)[C@@H](NC(=O)c4ccccc4)c4ccccc4)C(C)=C1C3(C)C)[C@]1(OC(C)=O)CO[C@@H]1C[C@@H]2O [Paclitaxel] | 5.9

same assay, conditions: B-Cell Non-Hodgkin's Lymphoma, max 10 µM

Structure (SMILES) | IC50, cell viability 72 h [nM]
COc1cc([C@@H]2c3cc4c(cc3[C@@H](O[C@@H]3O[C@@H]5CO[C@@H](C)O[C@H]5[C@H](O)[C@H]3O)[C@H]3COC(=O)[C@H]23)OCO4)cc(OC)c1O [Etoposide] | 4930
COc1cc2ncnc(Nc3ccc(F)c(Cl)c3)c2cc1OCCCN1CCOCC1 [Gefitinib] | > 10000
CS(=O)(=O)CCNCc1ccc(-c2ccc3ncnc(Nc4ccc(OCc5cccc(F)c5)c(Cl)c4)c3c2)o1 [Lapatinib] | > 10000
NC1(c2ccc(-c3nc4ccn5c(=O)[nH]nc5c4cc3-c3ccccc3)cc2)CCC1 [MK-2206] | > 10000
O=C(c1cc(Cc2n[nH]c(=O)c3ccccc23)ccc1F)N1CCN(C(=O)C2CC2)CC1 [Olaparib] | > 10000
CC(=O)c1c(C)c2cnc(Nc3ccc(N4CCNCC4)cn3)nc2n(C2CCCC2)c1=O [Palbociclib] | > 10000
N#Cc1cnc(Nc2cc(NC[C@H]3CNCCO3)c(C(F)(F)F)cn2)cn1 [SRA737] | 2860
Cn1cnc2c(F)c(Nc3ccc(Br)cc3Cl)c(C(=O)NOCCO)cc21 [Selumetinib] | > 10000
Cc1nc(-c2cn3c(n2)-c2ccc(-c4cnn(C(C)(C)C(N)=O)c4)cc2OCC3)n(C(C)C)n1 [Taselisib] | 5680
